Results taken from patent US20250082605A1 (priority 2016, published 2025).

Key:
[1] = test system: cardiac sympathetic afferent reflex (CSAR); assay: Response to activation of the CSAR (MAP, RSNA) over 26 weeks after epidural or epicardial RTX; format: in vivo, rat
Experimental: (§1) The following Examples 1 through 9 discuss data from rats with induced CHF. The Examples show many improved indicators associated with RTX treatment in CHF subjects. The rat models provide for comparison of epidural administration of RTX against epicardial administration of RTX and against various controls. For the epicardial data, RTX was administered directly to the epicardium by swab during open surgery contemporaneously with induced myocardial infarction (coronary artery ligation).
(§2) For epidural application of RTX, a small midline incision was made in the region of the T13-L1 thoracic vertebrae. Following dissection of the superficial muscles, two small holes (approximately 2 mm by 2 mm) were made in the left and right sides of the T13 vertebra. A polyethylene catheter (PE-10) was inserted into the […] via the left hole and gently advanced about 5.5-6 cm to the left T1 level at which the first injection (6 μg/mL, 10 μL) was made at a very slow speed to minimize the diffusion of RTX. Then the catheter was pulled back about 0.5 cm to left T2, T3, and T4, respectively, to perform serial injections (10 μL each) in each segment. Then the catheter was withdrawn and the same injection was repeated on the right side. A silicone gel was used to seal the hole in the T13 vertebra. The skin overlying the muscle was closed with a 3-0 polypropylene suture. Simple interrupted sutures were used to close the skin.
(§3) FIGS. 3A-4B show experimental results for a rat study in accordance with an embodiment of the present application.

rats with induced CHF [2] = assay: Cardiac and renal sympathetic nerve activity (CSNA, RSNA) in CHF rats; format: in vivo, rat; conditions: for cardiac sympathetic nerve activity (CSNA): CHF
Experimental: (§4) In each case, administration of vehicle or RTX and vehicle was epidural. […] Both significance measures were at the P<0.05 level.
as §1, §2
In each case, administration of vehicle or RTX plus vehicle was epidural. […] Both significance measures were at the P<0.05 level.

rats with induced CHF [3] = assay: End-systolic and end diastolic pressure volume relationship in CHF rats; format: in vivo, rat
Excerpt: In each case, administration of vehicle or RTX and vehicle was epidural.
as §4, §1, §2
In each case, administration of vehicle or RTX and vehicle was epidural. […] CHF corresponds to a reduction in ESPVR, with appeared unaffected by epidural RTX.

rats with induced CHF [4] = assay: Mean arterial pressure over 24 hours in CHF rats; format: in vivo, rat; conditions: epidural RTX, 10-12 weeks after myocardial infarction
Experimental: The study was conducted 10-12 weeks after the myocardial infarction.
as §2
For each population, n=6-8. The study was conducted for a 10-12 week period after the myocardial infarction. […] Treatment with epidural RTX corresponds to a lower MAP for the CHF rat population.

early hypertensive rats = assay: Arterial pressure in early hypertensive rat model after epidural RTX; format: in vivo
Experimental: Open circles indicate the control population, while filled circles indicate the RTX-treated population. Epidural administration of RTX was by injection on Day 0, as indicated by the arrow on the graph.
The hypertensive model is a genetic spontaneously hypertensive rat (SHR). The early hypertension rats were treated at 8 weeks at age, reflecting a population in which blood pressure was only minimally elevated at the beginning of the study. Examples 10 and 11 illustrate treatment of subjects with hypertension and pre-hypertension (i.e., mild hypertension or early hypertension) and without induced CHF. For these subjects, epidural administration of RTX may be associated with an absolute reduction in blood pressure. Additionally, subjects treated with RTX may show less increase in blood pressure over time, as compared to a control population. Or, treatment may be associated with both an absolute reduction in pressure and lessened increase over time.
FIG. 13A-13C show experimental results in a study using an early-hypertensive rat model. […] Open circles indicate the control population, while filled circles indicate the RTX-treated population. Epidural administration of RTX was by injection on Day 0, as indicated by the arrow on each graph.

[5] = test system: established hypertensive rat model; assay: MAP and heart rate in established hypertensive rats after lumbar (L2-L5) RTX administration; format: in vivo
Experimental: Blood pressure measurements are 8 hours average per day.
Example 12 describes an experiment in which RTX administration was made to the lumbar region of a rat population (L2-L5).
Blood pressure continued to increase above the pre-injection baseline level by the end of the study period.

TRPV1 [6] = target: T1, TRPV1 (Rattus norvegicus, UniProt O35433); assay: Isolectin B4 (IB4) and TRPV1 expression in DRG neurons after epidural RTX; format: in vivo; design: from tissue; host or cells: rat dorsal root ganglion (DRG) neurons; conditions: epidural RTX vs vehicle-only, FIG. 3A
T1 sequence (O35433 whole entry): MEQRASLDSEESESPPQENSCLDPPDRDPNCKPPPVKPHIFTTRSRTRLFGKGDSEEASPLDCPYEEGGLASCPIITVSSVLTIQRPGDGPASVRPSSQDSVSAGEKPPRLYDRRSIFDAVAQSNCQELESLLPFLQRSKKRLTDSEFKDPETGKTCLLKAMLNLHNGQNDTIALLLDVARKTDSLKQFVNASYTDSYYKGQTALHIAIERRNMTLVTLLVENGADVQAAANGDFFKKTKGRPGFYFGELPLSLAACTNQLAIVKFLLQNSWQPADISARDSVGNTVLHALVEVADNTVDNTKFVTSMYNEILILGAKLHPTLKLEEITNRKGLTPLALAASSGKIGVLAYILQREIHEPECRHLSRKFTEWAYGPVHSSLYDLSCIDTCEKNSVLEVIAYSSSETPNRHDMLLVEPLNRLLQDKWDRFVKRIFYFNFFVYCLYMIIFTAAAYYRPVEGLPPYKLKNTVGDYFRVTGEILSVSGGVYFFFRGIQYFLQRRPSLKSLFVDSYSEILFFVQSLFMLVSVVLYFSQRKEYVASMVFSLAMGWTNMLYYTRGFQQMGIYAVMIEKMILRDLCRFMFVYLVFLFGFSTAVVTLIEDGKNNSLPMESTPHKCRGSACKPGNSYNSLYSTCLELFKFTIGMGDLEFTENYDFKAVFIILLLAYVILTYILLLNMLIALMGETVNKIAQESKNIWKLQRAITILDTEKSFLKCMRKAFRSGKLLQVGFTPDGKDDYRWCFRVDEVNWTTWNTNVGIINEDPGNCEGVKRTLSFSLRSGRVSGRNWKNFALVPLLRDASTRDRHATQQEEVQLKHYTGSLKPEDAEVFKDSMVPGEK
Experimental: as §2, §3

TRPV1 [7] = target: T1, TRPV1; assay: TRPV1 receptor intensity by vertebral level after epidural RTX injection at T1-T4; format: in vivo; design: from tissue; host or cells: rat tissue at vertebral levels C6-L4 after in vivo epidural RTX; conditions: RTX injection at T1-T4 vertebral levels, FIG. 2
Excerpt: The nerves associated with the sympatho-excitation corresponding to increased cardiac sympathetic nerve activity are predominately found within the first four thoracic vertebral levels (Evans et al. (1953) N. Engl. J. Med. 249:791-796). Thus, administration to one or more of the first four thoracic vertebral levels may be beneficial because the nerves associated with cardiac sympathetic afferent nerve activity are predominately found within the first four thoracic vertebral levels. By treating these thoracic vertebral levels, denervation of these sympathetic afferent nerves will be substantially achieved with minimal or only partial denervation or ablation of nerves at other vertebral levels. […] Additionally, the small images inset on the figure show greater intensity of activity visible at the C6, C7, T6, T7, and L4 vertebral levels, as compared to the C8 through T5 vertebral levels.
For epidural application of RTX, a small midline incision was made in the region of the T13-L1 thoracic vertebrae. Following dissection of the superficial muscles, two small holes (approximately 2 mm by 2 mm) were made in the left and right sides of the T13 vertebra. […]

[8] = epidural RTX vs vehicle, weeks 1, 5-6, 9-11, 24-26, FIG. 3B
[9] = vehicle-only continued to increase

**Q.** Which results are given for `C=C(C)[C@]12C[C@@H](C)[C@@]34O[C@](Cc5ccccc5)(O[C@@H]1[C@@H]3C=C(COC(=O)Cc1ccc(O)c(OC)c1)C[C@]1(O)C(=O)C(C)=C[C@@H]41)O2` [RTX, resiniferatoxin]?
**A.** duration of cardiac sympathetic afferent ablation ([1]; epicardial RTX administration): 3-4 months; mean arterial pressure (MAP) response to activation of the CSAR [1, 8]: substantial decrease; renal sympathetic nerve activity (RSNA) response to activation of the CSAR [1, 8]: substantial decrease; CHF-induced increase in basal cardiac sympathetic tone (CSNA and RSNA) (rats with induced CHF [2]; CHF + epidural RTX): not exhibited; basal cardiac sympathetic tone, difference (rats with induced CHF [2]; CHF + epidural RTX vs non-CHF population): not statistically significant; cardiac sympathetic nerve activity (CSNA) (rats with induced CHF [2]; epicardial RTX vs untreated CHF): substantially reduced; cardiac sympathetic nerve activity (CSNA) (rats with induced CHF [2]; epidural RTX vs epicardial RTX): substantially lower; cardiac sympathetic nerve activity (CSNA) (rats with induced CHF [2]; epidural RTX vs untreated CHF): substantially reduced; end diastolic pressure volume relationship (EDPVR), difference (rats with induced CHF [3]; CHF + epidural RTX vs population without CHF): not statistically significant; end diastolic pressure volume relationship (EDPVR) (rats with induced CHF [3]; CHF + epidural RTX vs untreated CHF): statistically significantly less; end-systolic pressure volume relationship (ESPVR), CHF-related reduction (rats with induced CHF [3]; epidural RTX): unaffected; mean arterial pressure (MAP) over 24 hours (rats with induced CHF [4]): lower MAP; MAP following treatment (early hypertensive rats): 125-130 mmHg; day from which MAP was significantly lower than vehicle-only (early hypertensive rats): 20 days; day from which diastolic arterial pressure was significantly lower than control (early hypertensive rats): ~22 days; day from which systolic arterial pressure was significantly lower than control (early hypertensive rats): ~23 days; mean arterial pressure (MAP) after RTX injection (early hypertensive rats; epidural RTX Day 0): decreased slightly; systolic arterial pressure within a few days after RTX injection (early hypertensive rats; then returned and maintained): decreased slightly; diastolic arterial pressure over the study period (early hypertensive rats; [9]): remained approximately steady; mean arterial pressure (MAP) over the period of the study (early hypertensive rats; [9]): approximately steady; heart rate following RTX injection ([5]; RTX L2-L5): increase in heart rate; time over which heart rate increase subsides ([5]; RTX L2-L5, after injection): 2 to 10 days; time at which MAP returned to the pre-injection baseline ([5]; RTX L2-L5, after treatment): 15 to 20 days; MAP following lumbar injection ([5]; RTX L2-L5, established hypertensive rats): reduced immediately; sustained treatment of hypertension ([5]; RTX to lumbar region L2-L5): does not achieve the sustained treatment of hypertension; isolectin B4 (IB4) and TRPV1 expression in DRG neurons (TRPV1 [6]): reduction; reduced vanilloid (TRPV1) receptor intensity, localisation (TRPV1 [7]): generally localized to the four treated vertebral levels and the one or two vertebral levels proximate the treated vertebral levels
